Reference: patent US20040241708A1, “Recombinant vector for transforming strain to detect benzoic acid and derivatives thereof, transformant containing the recombinant vector, and method for detecting benzoic acid and derivatives thereof using the transformant” (priority 2003, published 2004)

Tested on: transformant EBNAG1 (E. coli RFM443/pNAG1, nagR-PnagG::luxCDABE)
Assay: Detectability of transformant EBNAG1 on benzoic acid and derivatives (bioluminescence response)
Assay type: cell-based, Escherichia coli
Settings: for minimal effective concentration: Escherichia coli, read-out: MDC (Minimum detection concentration); for bioluminescence intensity: EBNAG1, 0.1953125-12.5 mM, 3 hours after seeding, FIGS. 3a and 3b
Experimental: The EBNAG1 strain was cultivated in a 100 ml LB medium supplemented with 50 μg/ml ampicillin at 30° C. until the absorbance reached 0.08 (at 600 nm). 100 μl of aliquot was taken from the culture for the measurement of the bioluminescence intensity, and was then poured on each well of an opaque96-well plate [Microlite™, Thermo Labsystems, USA] containing chemicals to be tested (benzoic acid concentrations: 12.5, 6.25, 3.125, 1.5625, 0.78125, 0.390625 and 0.1953125 mM, and salicylic acid concentrations: 12.5, 6.25, 3.125, 1.5625, 0.78125, 0.390625 and 0.1953125 mM). The well plates were placed in a 96-well microtiter plate reader (MLX Microtiter® Plate Luminometer, DYNEX Technology, USA) to measure the bioluminescence intensity.
FIGS. 3a and 3b show the results of bioluminescent signals obtained from EBNAG1 after seeding benzoic acid and salicylic acid as a representative benzoic acid derivative at various concentrations, respectively.

| SMILES | minimal effective concentration | bioluminescence intensity |
| --- | --- | --- |
| O=C(O)c1ccc(O)cc1O [2,4-Dihydroxybenzoic acid] | 3130 µM |  |
| O=C(O)c1ccc(O)c(O)c1 [3,4-Dihydroxybenzoic acid] | 6250 µM |  |
| COc1ccc(CO)cc1OC [3,4-Dimethoxybenzylalcohol] | 390 µM |  |
| O=C(O)c1cc(O)cc(O)c1 [3,5-Dihydroxybenzoic acid] | 3130 µM |  |
| O=C(O)c1ccc(Cl)cc1O [4-Chlorosalicylic acid] | < 390 µM |  |
| O=C(O)c1cc(Cl)ccc1O [5-Chlorosalicylic acid] | 390 µM |  |
| O=C(O)c1ccccc1 [Benzoic acid] | 390 µM | increased in proportion to the benzoic acid concentrations |
| O=C(O)c1ccccc1O [Salicylic acid] | 195 µM | increased in proportion to the salicylic acid concentrations |
